Test results from patent US7045532B2 (Millennium Pharmaceuticals, Inc., priority 1999, dated 2006).
Like-named read-outs stand apart in the source and are kept apart here.

Molecular target: T1, ACE-2 (Homo sapiens, UniProt Q9BYF1)
T1 construct: a stop codon inserted after the serine immediately preceding the transmembrane domain; made in house; host or cells: CHO K1 cells (transient transfection, purified from conditioned medium)
Test: ACE-2 Competitive Substrate Assay (ACS Assay)
Format: biochemical

[1] = Ki class, compounds tested in 5% DMSO, 12 compound concentrations, Ki=Kiapp/(1+[S]/Km), read-out: Human ACE-2 Activity
[2] = Ki class per key, compounds tested in 5% DMSO, 12 compound concentrations, 25° C., Ki=Kiapp/(1+[S]/Km), read-out: Human ACE-2 Activity
[3] = Table 3, very good ACE-2 inhibiting compounds, species not given, read-out: ACE-2 Activity, Ki
[4] = Ki class, compounds tested in 5% DMSO, 12 concentrations, read-out: Human ACE-2 Activity

T1 sequence (Q9BYF1 18-740 limits assumed): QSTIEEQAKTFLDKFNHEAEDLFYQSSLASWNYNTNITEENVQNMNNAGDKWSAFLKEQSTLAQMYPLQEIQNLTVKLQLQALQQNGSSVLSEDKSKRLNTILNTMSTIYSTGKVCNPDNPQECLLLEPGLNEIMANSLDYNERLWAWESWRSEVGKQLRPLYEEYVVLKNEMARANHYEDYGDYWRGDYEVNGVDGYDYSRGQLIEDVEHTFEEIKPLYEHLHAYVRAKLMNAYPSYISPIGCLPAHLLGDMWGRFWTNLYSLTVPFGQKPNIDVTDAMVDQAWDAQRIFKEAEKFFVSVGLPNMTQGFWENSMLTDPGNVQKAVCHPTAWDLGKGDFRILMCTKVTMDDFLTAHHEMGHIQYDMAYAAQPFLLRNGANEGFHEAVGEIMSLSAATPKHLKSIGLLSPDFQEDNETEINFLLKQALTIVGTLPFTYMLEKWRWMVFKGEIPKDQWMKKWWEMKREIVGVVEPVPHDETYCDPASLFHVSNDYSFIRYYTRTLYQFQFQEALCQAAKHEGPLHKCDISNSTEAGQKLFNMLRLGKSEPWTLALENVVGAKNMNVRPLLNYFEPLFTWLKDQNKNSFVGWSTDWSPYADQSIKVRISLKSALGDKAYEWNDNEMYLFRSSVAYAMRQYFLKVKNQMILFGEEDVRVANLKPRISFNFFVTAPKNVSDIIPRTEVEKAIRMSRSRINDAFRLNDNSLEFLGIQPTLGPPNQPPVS

Structure (SMILES)	Ki [1]	Ki [2]	Ki [3]	also measured
CC(C)C[C@H](N[C@@H](Cc1ccc(-c2ccccc2)o1)C(=O)O)C(=O)O [NR, (S,S)-2-[1-Carboxy-2-(5-phenyl-furan-2-yl)-ethylamino]-4-methyl-pentanoic acid]	100 to 500 nM	–	–	–
Cc1cccc(Cn2cncc2C[C@H](NC(CC(C)C)C(=O)O)C(=O)O)c1 (single isomer, unassigned) [HP, 2-[1-Carboxy-2-[3-(3-methyl-benzyl)-3H-imidazol-4-yl]-ethylamino]4-methyl-pentanoic acid]	> 500 nM	–	–	–
CC(C)COc1cccc(C[C@H](N[C@@H](CC(C)C)C(=O)O)C(=O)O)c1 [ON, 2-[1-Carboxy-2-(3-isobutoxy-phenyl)-ethylamino]-4-methyl-pentanoic acid]	> 500 nM	–	–	–
CC(C)C[C@H](N[C@@H](Cc1cccc(-c2cccc3ccccc23)c1)C(=O)O)C(=O)O [MX, (S,S)-2-[1-Carboxy-2-(3-naphthalen-1-yl-phenyl)-ethylamino]-4-methyl-pentanoic acid]	> 500 nM	–	–	–
CC(C)C[C@H](N[C@@H](CN1C(=O)CN(Cc2ccc(C(F)(F)F)cc2C(F)(F)F)C1=O)C(=O)O)C(=O)O [PY, 2-[2-[3-(2,4-Bis-trifluoromethyl-benzyl)-2,5-dioxo-imidazolidin-1-yl]-1-carboxy-ethylamino]-4-methyl-pentanoic acid]	–	> 500 nM	–	–
CC(C)CC(N[C@@H](Cc1csc(-c2ccccc2)n1)C(=O)O)C(=O)O (stereo in doubt) [GQ, 2-[1-Carboxy-2-[2-phenyl-thiazol-4-yl)-ethylamino]-4-methyl-pentanoic acid]	–	–	–	Ki [4]: > 500 nM
CC(C)CC(N[C@@H](Cc1cncn1CC1CCCCC1)C(=O)O)C(=O)O (single isomer, unassigned) [JG, 2-[1-Carboxy-2-(3-cyclohexylmethyl-3H-imidazol-4-yl)-ethylamino]4-methyl-pentanoic acid]	> 500 nM	–	–	–
CC(C)C[C@H](N[C@@H](Cc1ccc(-c2cccc(Cl)c2)o1)C(=O)O)C(=O)O [OS, (S), (S)-2-{1-Carboxy-2-[5-(3-chloro-phenyl)-furan-2-yl]-ethylamino}-4-methyl-pentanoic acid]	> 500 nM	–	–	–
CC(C)C[C@H](N[C@@H](Cc1ccc(-c2cc(Cl)cc(Cl)c2)o1)C(=O)O)C(=O)O [NS, (S,S)-2-{1-Carboxy-2-[5-(3,5-dichlorophenyl)-furan-2-yl]-ethylamino}-4-methyl-pentanoic acid]	100 to 500 nM	–	–	–
CC(C)CC(N[C@@H](Cc1cncn1Cc1cc(Cl)cc(Cl)c1)C(=O)O)C(=O)O (single isomer, unassigned) [HF, 2-[1-Carboxy-2-[3-(3,5-dichloro-benzyl)-3H-imidazol-4-yl]-ethylamino)4-methyl-pentanoic acid]	100 to 500 nM	–	–	–
COC(=O)[C@H](Cc1cncn1Cc1cc(Cl)cc(Cl)c1)N[C@@H](CC(C)C)C(=O)O [KX, (S,S) 2-{2-[3-(3,5-Dichloro-benzyl)-3H-imidazol-4-yl]-1-methoxycarbonyl-ethylamino}-4-methyl-pentanoic acid]	< 100 nM	–	< 50 nM	–
CC(C)C[C@H](N[C@@H](Cc1cncn1Cc1cc(Cl)cc(Cl)c1)C(=O)O)C(=O)OC(C)(C)C [NM, 2-[1-Carboxy-2-[3-(3,5-dichloro-benzyl)-3H-imidazol-4-yl]-ethylamino)4-methyl-pentanoic acidtert-butyl ester]	< 100 nM	–	< 50 nM	–
Cc1c(Cn2cncc2C[C@H](NC(CC(C)C)C(=O)O)C(=O)O)cccc1-c1ccccc1 (single isomer, unassigned) [IQ, 2-[1-Carboxy-2-[3-(2-methyl-biphenyl-3-ylmethyl)-3H-imidazol-4-yl]-ethylamino]-4-methyl-pentanoic acid]	100 to 500 nM	–	–	–
CC(C)C[C@H](N[C@@H](Cc1ccc(-c2ccsc2)o1)C(=O)O)C(=O)O [NV, (S,S)-2-[1-Carboxy-2-(5-thiophen-3-yl-furan-2-yl)-ethylamino]-4-methyl-pentanoic acid]	> 500 nM	–	–	–
C[C@@H](N[C@@H](CCCNC(=N)N)C(=O)O)C(=O)O [I, 2-(1-Carboxy-ethylamino)-5-guanidino-pentanoic acid]	–	–	–	Ki [4]: > 500 nM
CC(C)C[C@H](N[C@@H](Cc1csc(-c2ccc3c(c2)CCO3)n1)C(=O)O)C(=O)O [KI, (S,S)-2-{1-Carboxy-2-[2(2,3-dihydro-benzofaran-5-yl]-thiazol-4-yl]-ethylamino}-4-methyl pentanoic acid]	< 100 nM	–	50 to 100 nM	–
CC(C)C[C@H](N[C@@H](CNC(=O)c1cccc(Cl)c1)C(=O)O)C(=O)O [LI, (S,S)-2-[1-Carboxy-2-(3-chloro-benzoylamino)-ethylamino]-4-methyl-pentanoic acid]	> 500 nM	–	–	–
CC(C)CC(N[C@@H](Cc1cncn1Cc1c(Cl)cccc1Cl)C(=O)O)C(=O)O (single isomer, unassigned) [JD, 2-[1-Carboxy-2-[3-(2,6-dichloro-benzyl)-3H-imidazol-4-yl]-ethylamino]4-methyl-pentanoic acid]	> 500 nM	–	–	–
COC(=O)[C@H](Cc1ccn(C(=O)OC(C)(C)C)n1)N[C@@H](CC(C)C)C(=O)OCc1ccccc1 [ML, 3-[2-(1-Benzyloxycarbonyl3-methyl-butylamino)-2-methoxycarbonyl-ethyl]-pyrazole-1-carboxylicacid tert-butyl ester]	> 500 nM	–	–	–
CC(C)C[C@H](N[C@@H](Cn1ccn(Cc2cccc(Cl)c2)c1=O)C(=O)O)C(=O)O [OE, (S,S)-2-{1-Carboxy-2-[3-(3-chloro-benzyl)-2-oxo-2,3-dihydro-imidazol-1-yl]-ethylamino}-4-methyl-pentanoic acid]	< 100 nM	–	< 50 nM	–

Second part, led by results:

Ki [1]	Ki [2]	Ki [3]	Structure (SMILES)	also measured
> 500 nM	–	–	Cc1cc(C)cc(COc2cccc(C[C@H](N[C@@H](CC(C)C)C(=O)O)C(=O)O)c2)c1 [OA, 2-[1-Carboxy-2-[3-(3,5-dimethyl-benzyloxy)-phenyl]-ethylamino]-4-methyl-pentanoic acid]	–
–	100 to 500 nM	–	CC(C)C[C@H](N[C@@H](Cc1ccc([N+](=O)O)cc1)C(=O)O)C(=O)O [RA, 2-[1-Carboxy-2-(4-nitro-phenyl)-ethylamino]-4-methyl-pentanoic acid]	–
–	< 100 nM	–	CC(C)C[C@H](N[C@@H](Cc1ccc(C(=O)OC(C)(C)C)cc1)C(=O)O)C(=O)O [PU, (S,S) 4-[2-Carboxy-2-(1-carboxy-3-methyl-butylamino)-ethyl]-benzoic acid tert-butyl ester]	–
–	< 100 nM	< 50 nM	CC(C)C[C@H](N[C@@H](Cc1ccc(OCc2csc3ccc(Cl)cc23)cc1)C(=O)O)C(=O)O [QK, 2-[1-Carboxy-2-[4-(5-chloro-benzo[b]thiophen-3-ylmethoxy)-phenyl]-ethylamino]-4-methyl-pentanoic acid]	–
< 100 nM	–	50 to 100 nM	CC(C)C[C@H](N[C@@H](Cc1ccc(-c2ccsc2)cc1)C(=O)O)C(=O)O [NF, (S,S)-2-[1-Carboxy-2-(4-thiophen-3-yl-phenyl)-ethylamino]-4-methyl-pentanoic acid]	–
–	< 100 nM	< 50 nM	Cc1ccc(-c2ccc(C[C@H](N[C@@H](CC(C)C)C(=O)O)C(=O)O)cc2)nc1 [PZ, (S,S)-2-{1-Carboxy-2-[4-(5-methyl-pyridin-2-yl)-phenyl]-ethylamino}-4-methyl-pentanoic acid]	–
100 to 500 nM	–	–	CC(C)C[C@H](N[C@@H](CCc1ccc(OCc2ccccc2)cc1)C(=O)O)C(=O)O [OQ, (S,S) 2-[3-(4-Benzyloxy-phenyl)-1-carboxy-propylamino]-4-methyl-pentanoic acid]	–
–	> 500 nM	–	CC(C)C[C@H](N[C@@H](Cc1ccc(NS(=O)(=O)c2ccccc2)cc1)C(=O)O)C(=O)O [PE, (S,S) 2-[2-(4-Benzenesulfonylamino-phenyl)-1-carboxy-ethylamino]-4-methyl-pentanoic acid]	–
100 to 500 nM	–	–	CC(C)C[C@H](N[C@@H](Cc1ccc(OCC2CCCCC2)cc1)C(=O)O)C(=O)O [KR, S,S-2-[1-Carboxy-2-(4-cyclohexylmethoxy-phenyl)-ethylamino]-4-methyl pentanoic acid]	–
–	> 500 nM	–	CC(C)C[C@H](N[C@@H](Cc1ccc(Oc2cc(F)cc(F)c2)cc1)C(=O)O)C(=O)O [PS, 2-[1-Carboxy-2-[4-(3,5-difluoro-phenoxy)-phenyl]-ethylamino]-4-methyl-pentanoic acid]	–
–	< 100 nM	< 50 nM	CC(C)C[C@H](N[C@@H](Cc1ccc(NC(=O)c2cc(F)cc(F)c2)cc1)C(=O)O)C(=O)O [OX, (S,S) 2-{1-Carboxy-2-[4-(3,5-difluoro-benzoylamino)-phenyl]-ethylamino}-4-methyl-pentanoic acid]	–
–	< 100 nM	50 to 100 nM	CC(C)C[C@H](N[C@@H](Cc1ccc(-c2ccccn2)cc1)C(=O)O)C(=O)O [PI, (S,S)-2-[1-Carboxy-2-(4-pyridin-2-yl-phenyl)-ethylamino]-4-methyl-pentanoic acid]	–
–	< 100 nM	50 to 100 nM	CC(C)C[C@H](N[C@@H](Cc1ccc(-c2ccc3c(c2)OCO3)cc1)C(=O)O)C(=O)O [OZ, 2-[2-(4-Benzo[1,3]dioxol-5-yl-phenyl)-1-carboxy-ethylamino]-4-methyl-pentanoic acid]	–
–	> 500 nM	–	CC(C)C[C@H](N[C@@H](Cc1ccc(C(=O)NCc2cc(F)cc(F)c2)cc1)C(=O)O)C(=O)O [QD, 2-[1-Carboxy-2-[4-(3,5-difluoro-benzylcarbamoyl)phenyl]-ethylamino]-4-methyl-pentanoic acid]	–
< 100 nM	–	< 50 nM	Cc1ccc(-c2ccc(C[C@H](N[C@@H](CC(C)C)C(=O)O)C(=O)O)cc2)cc1 [NH, (S,S)-2-[1-Carboxy-2-(4′-methyl-biphenyl-4-yl)-ethylamino]-4-methyl-pentanoic acid]	–
–	< 100 nM	< 50 nM	CC(C)C[C@H](N[C@@H](Cc1cc(-c2ccc(Cl)cc2)on1)C(=O)O)C(=O)O [QU, 2-(1-Carboxy-2-[5-(4-chloro-phenyl)-isoxazol-3-yl]-ethylamino]-4-methyl-pentanoic acid]	–
